Article PMC3187749, “Discovery of Diverse Small Molecule Chemotypes with Cell-Based PKD1 Inhibitory Activity” (PLoS ONE, 2011)

Key:
Type in all cases: biochemical
PKD2 = biological target: T1, PKD2 (Homo sapiens, UniProt Q9BZL6); assay: Radiometric PKD2 in vitro kinase assay; settings: preliminary in vitro data
T1 sequence (Q9BZL6 1-878): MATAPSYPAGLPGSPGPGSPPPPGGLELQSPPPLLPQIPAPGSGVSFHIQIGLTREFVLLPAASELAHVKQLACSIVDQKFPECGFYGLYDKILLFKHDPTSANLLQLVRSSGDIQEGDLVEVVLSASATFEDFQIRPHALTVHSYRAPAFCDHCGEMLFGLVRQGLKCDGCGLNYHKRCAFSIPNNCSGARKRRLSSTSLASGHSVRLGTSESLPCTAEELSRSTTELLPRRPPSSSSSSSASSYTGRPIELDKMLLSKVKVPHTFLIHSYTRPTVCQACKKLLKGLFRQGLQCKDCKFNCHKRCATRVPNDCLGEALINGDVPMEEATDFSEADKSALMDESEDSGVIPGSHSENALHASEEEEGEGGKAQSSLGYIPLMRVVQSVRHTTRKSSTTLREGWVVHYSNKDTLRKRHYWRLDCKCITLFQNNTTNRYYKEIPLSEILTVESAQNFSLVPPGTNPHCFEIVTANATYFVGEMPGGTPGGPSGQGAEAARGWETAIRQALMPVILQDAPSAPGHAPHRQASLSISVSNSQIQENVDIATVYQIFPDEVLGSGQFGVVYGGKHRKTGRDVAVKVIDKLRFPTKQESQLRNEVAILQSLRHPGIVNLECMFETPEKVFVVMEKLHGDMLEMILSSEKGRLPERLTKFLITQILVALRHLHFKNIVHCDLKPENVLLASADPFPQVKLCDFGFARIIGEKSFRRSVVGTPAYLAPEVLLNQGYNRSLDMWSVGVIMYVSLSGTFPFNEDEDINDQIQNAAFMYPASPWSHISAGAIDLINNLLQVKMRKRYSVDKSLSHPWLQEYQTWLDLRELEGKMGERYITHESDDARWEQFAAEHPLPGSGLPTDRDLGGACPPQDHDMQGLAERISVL
Method: Kinase reactions were initiated with the addition of ATP (50 µM ATP, 1.0 µCi γ-^33P-ATP; Perkin Elmer, Boston, MA) and incubated for 20 min at 30°C. Twenty-five µL of the reaction was spotted onto Whatman P81 filter paper (Whatman Inc., Clifton, NJ). Filter papers were then washed three times in 0.5% phosphoric acid, air-dried, and counted using an LS6500 multi-purpose scintillation counter (Beckman Coulter, Fullerton, CA). IC50 determinations were performed using GraphPad Prism software 5.0. Radiometric PKD2 and PKD3 in vitro kinase assays were performed as previously described.

CDK7 = assay: IMAP-based CDK7 counter screen; settings: concentrations up to 50 µM
Excerpt: It was also gratifying that, in general, our novel cell active PKD1 inhibitors appeared to be less promiscuous than PKD1 inhibitors having minimal to no cellular PKD1 inhibitory activity (Table 1). For example, CIDs 755673 and 1893668 display additional confirmed activity in six and seven, respectively, PubChem bioassays while CID 2011756 has confirmed activity in only one additional PubChem bioassay. […] In contrast, the remaining chemotypes registered as confirmed actives in 2–43 additional bioassays (Table 1). Additional chemical similarity searching, focusing on our four novel cell-active PKD1 inhibitory chemotypes, using MetaDrug also supports a comparative lack of promiscuity of these compounds.

recombinant human PKD1 = biological target: T2, recombinant human PKD1 (Homo sapiens, UniProt Q15139); assay: ATP competition studies (radiometric PKD1 assay, Michaelis-Menten/Lineweaver-Burk); settings: PKD1, ATP 12.5–1000 µM
T2 construct: His; purchased Millipore (Billerica, MA)
T2 sequence (Q15139 1-912): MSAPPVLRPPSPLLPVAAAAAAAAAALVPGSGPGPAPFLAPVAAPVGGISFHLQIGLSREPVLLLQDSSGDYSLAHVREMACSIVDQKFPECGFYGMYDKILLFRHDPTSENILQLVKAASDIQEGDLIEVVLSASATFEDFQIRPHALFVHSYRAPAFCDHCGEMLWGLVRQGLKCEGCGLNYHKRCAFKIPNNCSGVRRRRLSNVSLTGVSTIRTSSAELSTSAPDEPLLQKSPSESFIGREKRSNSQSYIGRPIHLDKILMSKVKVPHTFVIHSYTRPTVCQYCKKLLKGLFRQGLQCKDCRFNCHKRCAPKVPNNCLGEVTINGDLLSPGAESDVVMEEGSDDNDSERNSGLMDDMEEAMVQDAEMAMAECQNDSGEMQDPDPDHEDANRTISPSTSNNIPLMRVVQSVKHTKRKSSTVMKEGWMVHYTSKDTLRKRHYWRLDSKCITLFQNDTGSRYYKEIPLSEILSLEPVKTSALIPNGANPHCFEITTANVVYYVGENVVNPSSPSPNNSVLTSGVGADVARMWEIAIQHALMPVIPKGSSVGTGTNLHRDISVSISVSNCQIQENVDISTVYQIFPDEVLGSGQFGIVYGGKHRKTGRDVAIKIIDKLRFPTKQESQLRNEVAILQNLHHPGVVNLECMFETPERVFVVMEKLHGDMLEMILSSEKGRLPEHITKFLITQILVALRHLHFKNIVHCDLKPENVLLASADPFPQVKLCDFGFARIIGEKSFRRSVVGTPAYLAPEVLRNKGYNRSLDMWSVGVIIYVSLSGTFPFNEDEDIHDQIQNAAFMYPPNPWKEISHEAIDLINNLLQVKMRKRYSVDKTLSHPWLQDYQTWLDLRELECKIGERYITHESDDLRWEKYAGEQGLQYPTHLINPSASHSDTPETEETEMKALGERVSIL
Method: For ATP competition studies, recombinant human PKD1 (1 ng/µL) and Syntide-2 substrate peptide (200 ng/µl) in kinase buffer were incubated with a concentration range of test compound. Kinase reactions were initiated with a concentration range of cold ATP (12.5–1000 µM) supplemented with 1.0 µCi γ-^33P-ATP (Perkin Elmer) and processed as described above. Enzyme inhibition was analyzed and visualized using the Michaelis-Menten and Lineweaver-Burk functions of GraphPad Prism 5.0.

**Q.** How did the IC50 (PKD2) turn out when `O=C(Nc1ccc(CN2CCOCC2)cc1)c1ccc(-c2cccc(Cl)c2)o1` [CID 2011756, 5-(3-chlorophenyl)-N-[4-(morpholin-4-ylmethyl)phenyl]furan-2-carboxamide] was run?
**A.** Its IC50 is 600 ± 100 nM.

**Q.** And the CDK7 kinase inhibition (CDK7)?
**A.** The CDK7 kinase inhibition was “no kinase inhibition”.

**Q.** And the “Mechanism of Action (with respect to ATP)” value (recombinant human PKD1)?
**A.** Its value is “ATP competitive”.
